Marks after values point to notes of the source that are not given here.
Experiments:
[1] = system: calvaria (skull bones) from 4 day old pups; experiment: Calvarial Assay to Measure Inhibition of Bone Resorption (45Ca release); format: cell-based, CD-1 mice; settings: positive control
Protocol: In order to label cells of newborn mice in utero, pregnant CD-1 female mice (at timed day 15) were injected with ^45Ca (25 uCi/mouse). […] The bones were incubated at 37° C. in a 5% CO2 humidified incubator for a period of 24 hours following which they were transferred to wells containing 1 ml media with factors added (IL-1, PTH and or compounds.) The treated bones were incubated under the above conditions for a further 72 hours. […] The results were expressed as % ^45Ca release and can be further reported as T/C ratios. For some factors and compounds, modification of this procedure can be used. As most of the osteoclasts are formed in the calvaria following the preincubation period, the factors that affect osteoclast formation may have a greater effect during the preincubation period. Thus, for a number of the compounds, they were included in the preincubation media.

[2] = system: ovariectomized (OVX) rat model; experiment: In vivo ovariectomized (OVX) rat study - micro-CT measurement; settings: OVX rats, 35 days, positive control 0.5 mg/day; vs placebo group
Protocol: Two different formulas were tested in an in vivo study involving female, intact rats, aged approximately 12-14 weeks, with approximate body weights between 200-250 grams. Formula 2 included varying dosages of pomegranate extract and grape seed extract and a fixed dosage of ipriflavone as reported in Table 18. Three dosages were tested for each formula. The study utilized 8 groups of rats, with 15 rats in each group and lasted approximately 35 days.
To introduce rapid bone resorption caused by estrogen withdrawal, the ovariectomized (OVX) rat model was used in this study. […] It was important to evaluate the effect of bone resorption caused by the ovariectomy procedure so a Sham control (n=6), a group of female rats without undergoing the ovariectomy procedure, was also included in the study.
This study employed a randomized placebo controlled dose response design. A total of 120 ovariectomized rats (n=15 per group) aged ˜12-14 weeks, with body weights of approximately 200-250 grams were randomly assigned to groups for 35 days. Animals were fed at 15 grams/day, which included either a placebo diet or one of the formulas listed above, for a period of 35 days from the beginning of the experiment. […]
The effectiveness of the formulas on antiresorption was assessed by outcome measurements that included DEXA scan (to determine bone mineral density), biomechanical measurement (to gather bone strength and functional information), micro-CT measurement (to assess virtual bone quality and functional information), and histomorphology measurement (to assess bone quality and functional information). […] These measurements were determined after 35 days of treatment. […]

[3] = system: ovariectomized (OVX) rat model; experiment: In vivo ovariectomized (OVX) rat study - histomorphology measurement; settings: OVX rats, 35 days, positive control 0.5 mg/day; vs placebo group
Protocol: (§1) Two different formulas were tested in an in vivo study involving female, […] rats, aged approximately 12-14 weeks, with approximate body weights between 200-250 grams. Formula 2 included varying dosages of pomegranate extract and grape seed extract and a fixed dosage of ipriflavone as reported in Table 18. Three dosages were tested for each formula. The study utilized 8 groups of rats, with 15 rats in each group and lasted approximately 35 days.
Table 18 below indicates the formula given to each of the 8 test groups. […]
(§2) The effectiveness of the formulas on antiresorption was assessed by outcome measurements that included DEXA scan (to determine bone mineral density), biomechanical measurement (to gather bone strength and functional information), micro-CT measurement (to assess virtual bone quality and functional information), and histomorphology measurement (to assess bone quality and functional information). […] These measurements were determined after 35 days of treatment.
Histomorphology measurement was also used as a tool to determine the efficacy of formulas 1 and 2 where trabecular bone volume from each group was quantified. […]

[4] = system: ovariectomized (OVX) rat model; experiment: In vivo ovariectomized (OVX) rat study - biomechanical measurements; settings: OVX rats, 35 days, positive control 0.5 mg/day; vs placebo group
Protocol: as §1
Table 18 below indicates the formula given to each of the 8 test groups. The dosages in Table 18 are based on the recommended human dosages and were converted to the appropriate corresponding rat dose using the FDA conversion formula: Human equivalent dose (HED, mg/kg)=rat dose in mg/kg×(rat weight in kg/human weight in kg)^0.33 HED=rat NOAEL×(W-rat/W-human)^(1-b), b=0.67. […]
as §2, with “treatment. […]” for “treatment.”

## NCCCC(O)(P(=O)(O)O)P(=O)(O)O [Alendronate]
[1]; IL-1 + 0.1 μM
  Inhibition of Bone Resorption/Release of Calcium By Combinations of Extracts, % Release: 28.50 ± 1.19 % Release
[1]; IL-1 + 1 μM
  Inhibition of Bone Resorption/Release of Calcium By Combinations of Extracts, % Release: 17.00 ± 1.15^a % Release
[1]; IL-1 + 10 μM
  Inhibition of Bone Resorption/Release of Calcium By Combinations of Extracts, % Release: 14.07 ± 1.05^a % Release
[1]; IL-1 + 100 μM
  Inhibition of Bone Resorption/Release of Calcium By Combinations of Extracts, % Release: 12.00 ± 0.17^a % Release
[2]
  % Bone Volume/ Total Volume: 632%^a
  Trabecular Number (N/6 mm^3): 313%^a
  Trabecular Separation: −88%^a
[3]
  % Bone Volume: 214.1%^a
[4]
  Bone Stiffness: 0.2%
  Maximum Force Required to Fracture Bones: −0.4%

— patent US9446087B2, “Anti-resorptive and bone building dietary supplements and methods of use” (priority 2006, dated 2016)
